In article PMC3924328, “Structure of the S100A4/myosin-IIA complex” (BMC Structural Biology, 2013):
The star is where a group is joined. FITC = O=C1OC2(c3ccc(O)cc3Oc3cc(O)ccc32)c2ccc(NC(=S)*)cc21; Ahx = NCCCCCC(=O)O

Experiments:
S100A4 [1] = target: S100A4; set-up: method as in PMID 18410126; settings: ref [4]; cited from earlier work
S100A4 [2] = settings: S100A4 bound to MIIA^1908-1923; ref [4]; cited from earlier work
Text: In this regard, we examined whether this small peptide was sufficient to induce what is termed the “final folding” event that occurs upon S100 protein-target complex formation. […] As found for other wild-type and mutant S100 proteins [[6] ...

S100A4Δ8C [3] = target: T1, S100A4Δ8C (Homo sapiens, UniProt P26447); experiment: NMR titration of MIIA^1908-1923 into ^15N-labeled Ca^2+-bound S100A4Δ8C; assay type: binding
T1 construct: unable to crystallize the wild-type full-length S100A4 with myosin-IIA peptides; made in house; host or cells: E. coli BL21(DE3)*
Description: (§1) HSQC NMR data were collected at 37°C with a 600 MHz (600.13 MHz for protons) Bruker DMX NMR spectrometer equipped with pulsed-field gradients, four frequency channels, and a triple resonance, z-axis gradient cryogenic probe, Data were processed with NMRPipe, and proton chemical shifts were reported with respect to the H2O or HDO signal taken as 4.658 ppm relative to external trimethylsilylpropionic acid (0.0 ppm). The ^15 N chemical shifts were indirectly referenced as described previously using the following ratio of the zero-point frequency: 0.10132905 for ^15 N to ^1H [56].

Ca^2+-S100A4 = experiment: Paramagnetic relaxation, titration with spin-labeled MIIA^1893-1923-Cys-Proxyl; assay type: binding, human; settings: HSQC, 37°C, pH 6.5
Description: The beads containing the immobilized TCEP and other particulates were removed using a 0.45 μm Nanosep MF GHP centrifugal device (Pall Life Sciences) before the addition of 61 μl freshly prepared 50 mg/ml 3-maleimido-Proxyl (Sigma-Aldrich) in DMSO.
as §1

[4] = submicromolar concentrations; ref [4], [27], [30]; cited from earlier work
Description: Given the similarity in the molecular weights of the S100A4 and MIIA^1851-1960 dimers, the S100A4/MIIA^1851-1960 complex was further evaluated in sedimentation velocity experiments where MIIA^1851-1960 was added to S100A4 at increasing molar ratios. […] At a molar ratio of 0.5:1 MIIA^1851-1960 dimer to S100A4 dimer there was a shift in the S val ...

S100A4 [5] = target: T2, S100A4 (Homo sapiens, UniProt P26447); experiment: Sedimentation velocity of MIIA^1851-1960, S100A4 and S100A4/MIIA^1851-1960 mixtures; assay type: physicochemical
T2 construct: heteronuclear single quantum coherence spectrum (HSQC) of full-length Ca^2+-S100A4 at 600 MHz; made in house; host or cells: E. coli, M9 medium with 15N NH4Cl (BL21(DE3)* is named for the unlabelled protein)
Description: Sedimentation equilibrium and velocity experiments were conducted at 22°C in a Beckman XL-I analytical ultracentrifuge using a Ti60 rotor and Raleigh interference optics. Wild-type S100A4 and MIIA^1851-1960 were dialyzed into 20 mM Tris pH 7.5, 150 mM KCl, 0.5 mM CaCl2, 1 mM TCEP and 0.02% NaN3 and clarified by ultracentrifugation at 80,000 rpm for 10 minutes at 4°C in TLA 120.2 rotor. Sedimentation equilibrium analysis of MIIA^1851-1960 and S100A4 was conducted in six channel centerpieces by sequentially equilibrating the protein at three concentrations for 24 hr at 12,000, 20,000 and 28,000 rpm and globally analyzing the data using HeteroAnalysis v1.1.44 (James L. Cole and Jeffrey W. Lary). The sedimentation velocity experiments were conducted at 53,000 rpm using double sector centerpieces and analyzed using DCDT + v2.4.0 [57, 58]. The best-fit parameters and their 95% joint confidence intervals are reported. The calculated masses of the wild-type S100A4 and MIIA^1851-1960 monomers are 11,597.3 and 12,397.5 Da, respectively. Values of ν-bar = 0.715 for S100A4/MIIA^851-1960 and 0.735 for S100A4, ρ = 1.0059, μ = 1.00586 cp were calculated using Sednterp v1.06 (Hayes, B., T. Laue & J. Philo, Sedimentation Interpretation Program. 2003, University of New Hampshire) from the amino acid and buffer compositions, respectively.

myosin-IIA rods = settings: assembly-competent myosin-II rod constructs; ref [19], [20]; cited from earlier work
Text: Each heavy chain is comprised of an N-terminal motor domain that contains the ATP- and actin-binding sites, an intermediate rod domain that dimerizes to form an α-helical coiled-coil and a C-terminal tailpiece.

[6] = test system: myosin-IIA rods (MIIA^1339−1960); experiment: Promotion of disassembly assay, assembled myosin-IIA rods; assay type: biochemical; settings: one S100A4Δ8C dimer per myosin-IIA rod; 1.5 μM S100A4 dimer, 1.5 μM rod dimer; 20 mM Tris–HCl pH 7.5, 150 mM NaCl, 1 mM DTT, 2 mM MgCl2, 0.5 mM CaCl2, 0.02% NaN3; 2 hr, 22°C; SDS-PAGE densitometry; two independent experiments
Description: Assays comparing the ability of wild-type and the Δ8C S100A4 to depolymerize assembled myosin-IIA rods were performed as described in Li et al., using 1.5 μM S100A4 dimer and 1.5 μM myosin-IIA rod dimer in 20 mM Tris–HCl pH 7.5, 150 mM NaCl, 1 mM DTT, 2 mM MgCl2, 0.5 mM CaCl2, and 0.02% NaN3. Reaction mixtures (100 μl) were incubated for 2 hr at 22°C and then centrifuged at 80,000 rpm (175000 g) for 10 min at 25°C in a TL-100 ultracentrifuge (Beckman). Samples of the reaction mixtures and supernatants were separated on a 12% Tris-Tricine SDS-polyacrylamide gel. Coomassie-stained gels were scanned and the extent of myosin-IIA polymerization was quantified by densitometry and analyzed with the ImageQuant version 5.2.

S100A4Δ8C [7] = target: T1, S100A4Δ8C; experiment: Fluorescence anisotropy, FITC-MIIA^1904-1927 binding to S100A4Δ8C; settings: 22°C, 5 mM EGTA, data not shown
Description: Fluorescence anisotropy measurements were performed at 22°C using a Fluoromax-3-spectrofluorometer (Jobin Yvon). Individual reactions (200 μl) contained 50 nM FITC-MIIA^1904-1927 and 0–30 μM S100A4Δ8C dimer in 20 mM Tris pH 7.5, 150 mM KCl, 1 mM DTT, 0.02% NaN3, 0.5 mM CaCl2 and 0.5 mg/ml BSA. For competition anisotropy measurements individual reactions contained 50 nM FITC-MIIA^1904-1927, 0.3 μM S100A4 dimer and 0–10 μM MIIA^1851-1960 dimer as described above. Controls included experiments representing maximum anisotropy (15 μM wild-type S100A4 and S100A4Δ8C, 50 nM FITC-MIIA^1904-1927 and calcium) and minimum anisotropy (in the absence of S100A4 and in the presence of S100A4 and 5 mM EGTA). Anisotropy was measured using excitation and emission wavelengths of 490 nm and 520 nm, respectively. Measurements were acquired at the magic angle of 55° between the vectors of polarization of the excitation and emission light using a G factor of 0.634 as determined previously for FITC on this instrument. For measurements of S100A4Δ8C binding, data from two independent experiments were plotted using Graphpad Prism v5, and the dissociation constant was calculated by fitting to a single site saturation binding equation allowing for a floating Ymin value. […]

[8] = sedimentation velocity, 22°C, protein alone

T1 sequence (P26447 2-93, stated change not applied): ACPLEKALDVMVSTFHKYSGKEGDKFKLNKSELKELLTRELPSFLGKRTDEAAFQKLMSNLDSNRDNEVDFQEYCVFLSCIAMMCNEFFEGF
T2 sequence (P26447 2-101 limits assumed, one chain of several): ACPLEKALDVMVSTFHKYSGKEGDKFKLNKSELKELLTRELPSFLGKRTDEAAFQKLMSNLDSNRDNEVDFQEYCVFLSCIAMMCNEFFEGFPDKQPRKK

In the case of “Ac-RRKLQRELEDATETADAMNREVSSLKNKLRR-CONH2 [MIIA^1893-1923]”, the “Dissociation constant, in words” value (S100A4 [1]) is listed as “in the nanomolar range”.

In the case of “Ace-DAMNREVSSLKNKLRR-CONH2 [MIIA^1908-1923]”, the “Ca^2+-binding affinity of S100A4 when peptide bound” value (S100A4 [2]) is given as “higher Ca^2+-binding affinity”, the “Binding orientation to S100A4Δ8C versus wild-type S100A4” value (S100A4Δ8C [3]; 37°C, pH 6.5, 10 mM CaCl2) is given as “very similar structure/orientation in solution as observed for wild-type S100A4” and the “Exchange broadening of Ca^2+-bound S100A4Δ8C upon complex formation” value (S100A4Δ8C [3]; data not shown) is given as “exchange broadening completely disappeared”.

With “MIIA^1893-1923-Cys-Proxyl: MIIA^1893-1923-Cys labeled with 3-maleimido-Proxyl spin label” the “Residues with large reductions in cross-peak intensities” value (Ca^2+-S100A4; 2.6 μM spin-labeled peptide) was “loop 1 (Asp25), the beginning of helix 3 (Asp51, Glu52) and in the C-terminal loop (Lys100)” and the “Location of peptide C-terminus on S100A4 by paramagnetic relaxation” value (Ca^2+-S100A4; 2.6 and 5.3 μM spin-labeled peptide) was “near residues in helix 3 and the hinge (Leu46, Gly47, Asp51, Glu52”.

In the case of “S100A4: untagged, full-length human S100A4”, the Dimer stability [4] is given as “thermostable dimer at submicromolar concentrations”, the “Effect of S100A4 binding on dimeric myosin-IIA construct” value (S100A4 [5]; longer, dimeric myosin-IIA construct) is given as “dissociates the two myosin-IIA polypeptide chains to form a complex composed of one S100A4 dimer and a single myosin-IIA polypeptide chain” and the “Peak 1 S20,w” value (S100A4 [5]; sedimentation velocity, 22°C, 53,000 rpm, protein alone, 20 mM Tris pH 7.5, 150 mM KCl, 0.5 mM CaCl2, 1 mM TCEP, 0.02% NaN3) is given as 1.90 ± 0.01. For the same substance, the “Peak 1 MW” value (S100A4 [5]; [8]) was 21.2 ± 0.3 kDa, the S value (S100A4 [5]; [8]) was 1.9 S and the “[Peak 1] (green), relative amount of plateau concentrations” value (S100A4 [5]; [8]) was 2.00 ± 0.02. For the same substance, the Myosin-II isoform preference (myosin-IIA rods) was “preferentially recognizes and disassembles myosin-IIA rods”.

For “S100A4Δ8C: S100A4 deletion mutant (deletion of the C-terminal eight amino acids)”, the Myosin-IIA filaments disassembled [6] was “approximately 85%”.

For “{FITC-Ahx}-TETADAMNREVSSLKNKLRRGDLP-NH2 [FITC-MIIA^1904-1927]”, the “Binding to S100A4Δ8C in the presence of EGTA” value (S100A4Δ8C [7]) was “no binding was observed”.
